The results in this text go back to patent US20160221965A1, “DISUBSTITUTED TRIFLUOROMETHYL PYRIMIDINONES AND THEIR USE” (BAYER PHARMA AKTIENGESELLSCHAFT, priority 2013, published 2016).

One assay concerns the target T1, human CCR2 (Homo sapiens, UniProt P41597).
T1 construct: host or cells: Chem-1 cell line
T1 sequence (P41597 1-360 isoform P41597-2): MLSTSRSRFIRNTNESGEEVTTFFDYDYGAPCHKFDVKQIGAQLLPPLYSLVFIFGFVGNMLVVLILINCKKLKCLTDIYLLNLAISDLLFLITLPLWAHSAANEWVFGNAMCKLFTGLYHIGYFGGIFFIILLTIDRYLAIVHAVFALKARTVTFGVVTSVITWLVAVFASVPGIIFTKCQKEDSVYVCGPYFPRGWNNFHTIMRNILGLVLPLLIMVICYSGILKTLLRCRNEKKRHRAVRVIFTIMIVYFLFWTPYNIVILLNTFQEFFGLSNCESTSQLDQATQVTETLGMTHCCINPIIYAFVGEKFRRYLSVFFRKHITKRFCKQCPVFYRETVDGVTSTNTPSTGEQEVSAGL
Description: Functional Ca2+ release test (B-1). It is filed as cell-based. The following applies: Chem-1 cell line transfected with human CCR2, inhibition of MCP-1 effect, MCP-1 at EC50 (about 5 nM), Fluo-4. As for the experimental part: The antagonistic action of test substances on CCR2 was determined in a functional Ca^2+ release test. Binding of CCL2/MCP-1 to CCR2 leads to a change in the conformation of the receptor resulting in Gi/Gq protein activation and intracellular signal cascade. This involves, inter alia, an intracellular Ca^2+ release. The test cell used was a Chem-1 cell line transfected with human CCR2 (ChemiSCREEN™ CCR2B Calcium-Optimized FLIPR Cell Line, Merck Millipore).
(§1) The test substances were dissolved in dimethyl sulphoxide (DMSO) at a concentration of 10 mM and serially diluted with DMSO in steps of 1:3.16 for a 10-point dose/activity analysis. According to the desired test concentrations, the substances were pre-diluted in Tyrode with 2 mM CaCl2 and 0.05% BSA.
The cells, cultivated in DMEM high glucose [supplemented with 10% FCS, 1 mM pyruvate, 15 mM HEPES, 500 μg/ml geniticin and non-essential amino acids (NEAA)], were sown at 5000 cells/25 μl in 384 well, μCLEAR/black cell culture plates from Greiner (#781092) and incubated at 37° C. for 24 h. The sowing medium consisted of DMEM high glucose [supplemented with 5% FCS, 1 mM pyruvate, 15 mM HEPES, 50 U/ml penicillin, 50 μg/ml streptomycin and non-essential amino acids (NEAA)]. The medium was then removed and the cells were charged for 60 min at 37° C. with Fluo-4 dye [25 μl Tyrode with 3 μM Fluo-4 AM (1 mM DMSO stock solution), 0.4 mg/ml Brilliant Black, 2.5 mM probenicid, 0.03% Pluronic F-127]. The cells were pre-incubated for 10 min with 10 μl of the test substances diluted in buffer, and 20 μl of agonist solution (MCP-1 in Tyrode with 0.05% BSA) were then added. MCP-1 was employed at the concentration which corresponds to the EC50 which had been determined in a preliminary test (usually about 5 nM). Ca^2+ release was monitored over a period of 120 s in 1 s increments in a proprietary fluorescence imaging reader. The molar concentration of the test substance which caused 50% inhibition of the MCP-1 effect (IC50) was determined using a 4-parameter logistic function (Hill function).

The next assay concerns the target T2, murine CCR2 (Mus musculus, UniProt P51683).
T2 construct: host or cells: U2OS β-arrestin cell line
Description: Functional β-arrestin recruiting test with human MCP-1 (B-2a). In kind it is cell-based. The following applies: U2OS β-arrestin cell line transfected with murine CCR2; agonist human MCP-1 at EC50 (about 3 nM). As for the experimental part:
The antagonistic action of test substances on CCR2 was determined in a β-arrestin test. The PathHunter β-arrestin GPCR test system (DiscoveRx Corporation, Ltd.) is a cell-based functional method for detecting binding of β-arrestin to an activated receptor. The molecular basis is a β-galactosidase complementation measured by the enzymatic conversion of a chemiluminescent substrate. The test cell used was a U2OS β-arrestin cell line transfected with murine CCR2 (93-0543C3, DiscoveRx Corporation, Ltd.).
as §1
The cells, cultivated in MEM Eagle (supplemented with 10% FCS, 50 U/ml of penicillin, 50 μg/ml of streptomycin, 250 μg/ml of hygromycin and 500 μg/ml of geniticin), were sown at 2000 cells/25 μl in 384 well, μCLEAR/black cell culture plates from Greiner (#781092) and incubated at 37° C. for 24 h. The sowing medium consisted of Opti-MEM (supplemented with 1% FCS, 50 U/ml of penicillin and 50 μg/ml of streptomycin). The cells were pre-incubated for 10 min with 10 μl of the test substances diluted in buffer, and 10 μl of agonist solution [human MCP-1 (PeproTech, #300-04) in Tyrode with 0.05% BSA] were then added. The human MCP-1 was employed at the concentration which corresponds to the EC50 which had been determined in a preliminary test (usually about 3 nM). After 90 min of incubation at 37° C., the solution was removed, and recruitment of β-arrestin to CCR2 was detected with the aid of the PathHunter detection reagent (93-001, DiscoveRx Corporation, Ltd.) according to the instructions of the manufacturer. Luminescence was measured after an incubation time of 60 min using a proprietary luminescence imaging measuring instrument. The molar concentration of the test substance which caused 50% inhibition of the MCP-1 effect (IC50) was determined using a 4-parameter logistic function (Hill function).
(In general: Recruitment of arrestin is a read-out of receptor activation apart from second messengers.)

T2 sequence (P51683 whole entry): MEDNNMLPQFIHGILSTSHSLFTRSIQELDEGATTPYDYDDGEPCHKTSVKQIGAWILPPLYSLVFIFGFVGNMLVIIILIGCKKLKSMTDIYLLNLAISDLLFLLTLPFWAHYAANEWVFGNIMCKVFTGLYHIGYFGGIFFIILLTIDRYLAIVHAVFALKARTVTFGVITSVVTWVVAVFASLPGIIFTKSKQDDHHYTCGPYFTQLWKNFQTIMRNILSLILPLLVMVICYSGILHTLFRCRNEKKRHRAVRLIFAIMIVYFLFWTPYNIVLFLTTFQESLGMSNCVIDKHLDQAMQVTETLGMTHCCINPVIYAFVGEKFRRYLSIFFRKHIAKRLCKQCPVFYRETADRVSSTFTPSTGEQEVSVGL

The IC50 is the point on the concentration scale where inhibition reaches its midpoint. A lower IC50 goes with higher potency. `O=c1[nH]c(CCO)nc(C(F)(F)F)c1Oc1ccc(Cl)c(Cl)c1` [Example 68]: the results for the IC50 on human CCR2 and at murine CCR2 were 49 nM and 370 nM, respectively.

Turning to `Nc1nc(C(F)(F)F)c(Oc2cncc(Cl)c2)c(=O)[nH]1` [Example 12, 2-amino-5-[(5-chloropyridin-3-yl)oxy]-6-(trifluoromethyl)pyrimidin-4(3H)-one], the IC50 on human CCR2 was determined as 54 nM; at murine CCR2 it was 1000 nM.

Regarding `O=c1[nH]c(C2CC2)nc(C(F)(F)F)c1Cc1cccc(Cl)c1` [Example 21, 5-(3-chlorobenzyl)-2-cyclopropyl-6-(trifluoromethyl)pyrimidin-4(3H)-one], the concentration for half-maximal inhibition (IC50) against human CCR2 was 230 nM; on murine CCR2, 590 nM.

Consider `NC(=O)Cc1nc(C(F)(F)F)c(Oc2ccc(Cl)c(F)c2)c(=O)[nH]1` [Example 39], for which the values for the IC50 against human CCR2 and on murine CCR2 were 160 nM and 1800 nM, respectively.

Consider `CCc1nc(C(F)(F)F)c(Cc2cccc(C(F)(F)F)c2)c(=O)[nH]1` [Example 20, 2-ethyl-6-(trifluoromethyl)-5-[3-(trifluoromethyl)benzyl]pyrimidin-4(3H)-one], for which the figures for the IC50 on human CCR2 and on murine CCR2 were 300 nM and 1200 nM, respectively.

For the molecule `O=c1[nH]c(C2CC2)nc(C(F)(F)F)c1Cc1ccc(Cl)c(F)c1` [Example 23, 5-(4-chloro-3-fluorobenzyl)-2-cyclopropyl-6-(trifluoromethyl)pyrimidin-4(3H)-one], the IC50 at human CCR2 came to 280 nM; on murine CCR2, 1200 nM.

`Nc1nc(C(F)(F)F)c(Cc2ccc(Cl)c(C(F)(F)F)c2)c(=O)[nH]1` [Example 8, 2-amino-5-[4-chloro-3-(trifluoromethyl)benzyl]-6-(trifluoromethyl)pyrimidin-4(3H)-one]: the IC50 against human CCR2 turned out to be 33 nM; at murine CCR2, 160 nM.

Consider `Nc1nc(C(F)(F)F)c(Sc2ccc(Cl)c(C(F)(F)F)c2)c(=O)[nH]1` [Example 17, 2-amino-5-{[4-chloro-3-(trifluoromethyl)phenyl]sulphanyl}-6-(trifluoromethyl)pyrimidin-4(3H)-one], for which the IC50 against human CCR2 was determined as 4.1 nM; on murine CCR2 it was 160 nM.

Regarding `NC(=O)Cc1nc(C(F)(F)F)c(Cc2ccc(Cl)c(C(F)(F)F)c2)c(=O)[nH]1` [Example 48], the IC50 was 31 nM at human CCR2 and 300 nM on murine CCR2.

With `NC(=O)Cc1nc(C(F)(F)F)c(Oc2ccc(F)c(Cl)c2)c(=O)[nH]1` [Example 36], the IC50 against human CCR2 is 110 nM; at murine CCR2, 1600 nM.

For `Cc1ccc(Cc2c(C(F)(F)F)nc(CC(N)=O)[nH]c2=O)cc1Cl` [Example 47], the IC50 at human CCR2 came to 49 nM; at murine CCR2 it was 830 nM.

Turning to `Nc1nc(C(F)(F)F)c(Sc2ccc(Cl)cc2)c(=O)[nH]1` [Example 16, 2-amino-5-[(4-chlorophenyl)sulphanyl]-6-(trifluoromethyl)pyrimidin-4(3H)-one], the IC50 on human CCR2 is 31 nM; at murine CCR2 it was 640 nM.

Regarding `CCc1nc(C(F)(F)F)c(Oc2ccc(Cl)c(Cl)c2)c(=O)[nH]1` [Example 33, 5-(3,4-dichlorophenoxy)-2-ethyl-6-(trifluoromethyl)pyrimidin-4(3H)-one], the IC50 on human CCR2 is 15 nM; at murine CCR2 it was 74 nM.

As for `O=c1[nH]c(CO)nc(C(F)(F)F)c1Cc1ccc(Cl)c(Cl)c1` [Example 51, 5-(3,4-Dichlorobenzyl)-2-(hydroxymethyl)-6-(trifluoromethyl)pyrimidin-4(3H)-one], the IC50 against human CCR2 amounted to 14 nM; on murine CCR2, 230 nM.

`O=c1[nH]c(C2CC2)nc(C(F)(F)F)c1Oc1ccc(Cl)c(Cl)c1` [Example 25, 2-cyclopropyl-5-(3,4-dichlorophenoxy)-6-(trifluoromethyl)pyrimidin-4(3H)-one]: the results for the IC50 at human CCR2 and at murine CCR2 were 15 nM and 170 nM, respectively.

In the case of `NC(=O)Cc1nc(C(F)(F)F)c(Cc2ccc(Cl)c(F)c2)c(=O)[nH]1` [Example 40], the values for the IC50 against human CCR2 and on murine CCR2 were 150 nM and 970 nM, respectively.

In the case of `O=c1[nH]c(CO)nc(C(F)(F)F)c1Oc1ccc(Cl)c(F)c1` [Example 55], the IC50 against human CCR2 was 6.2 nM; at murine CCR2, 120 nM.

For `Nc1nc(C(F)(F)F)c(Cc2ccc(Cl)c(F)c2)c(=O)[nH]1` [Example 13, 2-amino-5-(4-chloro-3-fluorobenzyl)-6-(trifluoromethyl)pyrimidin-4(3H)-one], the IC50 against human CCR2 turned out to be 69 nM; on murine CCR2 it was 330 nM.

For `Cc1ccc(Cc2c(C(F)(F)F)nc(C3CC3)[nH]c2=O)cc1Cl` [Example 29, 5-(3-chloro-4-methylbenzyl)-2-cyclopropyl-6-(trifluoromethyl)pyrimidin-4(3H)-one], the IC50 was determined as 91 nM at human CCR2 and 800 nM on murine CCR2.

Turning to `Nc1nc(C(F)(F)F)c(Oc2cccc(Cl)c2)c(=O)[nH]1` [Example 9, 2-amino-5-(3-chlorophenoxy)-6-(trifluoromethyl)pyrimidin-4(3H)-one], the half-inhibitory concentration (IC50) against human CCR2 stood at 38 nM; on murine CCR2, 450 nM.

Regarding `Nc1nc(C(F)(F)F)c(Sc2ccc(Cl)c(Cl)c2)c(=O)[nH]1` [Example 15, 2-Amino-5-[(3,4-dichlorophenyl)sulphanyl]-6-(trifluoromethyl)pyrimidin-4(3H)-one], the IC50 on human CCR2 came to 2.3 nM; on murine CCR2, 130 nM.

On to `O=c1[nH]c(C2CC2)nc(C(F)(F)F)c1Cc1ccc(Cl)c(Cl)c1` [Example 30, 2-cyclopropyl-5-(3,4-dichlorobenzyl)-6-(trifluoromethyl)pyrimidin-4(3H)-one], for which the IC50 against human CCR2 was determined as 100 nM; at murine CCR2, 550 nM.

In the case of `O=c1[nH]c(C2CC2)nc(C(F)(F)F)c1Cc1ccc(C(F)(F)F)c(Cl)c1` [Example 24, 5-[3-chloro-4-(trifluoromethyl)benzyl]-2-cyclopropyl-6-(trifluoromethyl)pyrimidin-4(3H)-one], the IC50 at human CCR2 was 270 nM; at murine CCR2, 1900 nM.

Turning to `NC(=O)Cc1nc(C(F)(F)F)c(Cc2cccc(C(F)(F)F)c2)c(=O)[nH]1` [Example 41], the IC50 is 270 nM against human CCR2 and 2000 nM on murine CCR2.

As to `O=c1[nH]c(CO)nc(C(F)(F)F)c1Oc1ccc(F)c(F)c1` [Example 53], the values for the IC50 against human CCR2 and on murine CCR2 were 70 nM and 620 nM, respectively.

On to `NC(=O)Nc1nc(C(F)(F)F)c(Cc2ccc(Cl)c(Cl)c2)c(=O)[nH]1` [Example 56, 1-[5-(3,4-Dichlorobenzyl)-6-oxo-4-(trifluoromethyl)-1,6-dihydropyrimidin-2-yl]urea], for which the 50% inhibitory concentration (IC50) at human CCR2 amounted to 17 nM; at murine CCR2, 330 nM.

In the case of `O=c1[nH]c(CO)nc(C(F)(F)F)c1Oc1cccc(Cl)c1` [Example 54], the IC50 was 10 nM at human CCR2 and 140 nM on murine CCR2.
